Experimental data taken from article PMC12040169 (PLOS Biology, 2025).

Test: in vitro
Conditions: human, hela cells, % viability

Structure (SMILES)	viability at 28.5 h, 10 µM [%]
CCOc1ccc(N(CCC#N)C(=O)Cn2nc(C(=O)O)c3ccccc3c2=O)cc1 [CBK297502]	85.2
O=S(=O)(c1ccc(Br)s1)N1CCC(Cc2ccccc2)CC1 [CBK043580]	89.7
COc1c(Cl)cc(Cl)cc1CNCCCN1CCOCC1 [CBK278165C]	88.8
CCNS(=O)(=O)c1ccc2c(c1)N(Cc1nc(C)c(C)o1)CC2 [CBK305189]	51.5
Cc1ccccc1-c1cc(=O)[nH]c(Nc2ccccc2)n1 [CBK288142]	97
NC(=O)c1c(NC(=O)COc2ccc(Cl)cc2)sc2c1CCC2 [CBK262163]	91
CSc1nsc(SCC(=O)OC2CC3CCC2(C)C3(C)C)n1 (stereo not shown) [CBK268941]	92.5
O=C(Nc1cc(N2CCCS2(=O)=O)ccc1Cl)c1cc[nH]n1 [CBK306249]	83.1
N#Cc1ccc(N2CCN(CCCNC(=O)Nc3ccccc3)CC2)cc1 [CBK267861]	95
CC(C)c1ccc(S(=O)(=O)NC(C#N)c2ccccc2)cc1 (stereo not shown) [CBK044403]	101
CC(=O)c1ccc(-c2nc(NC(=O)CC#N)cnc2-c2ccc(F)c(Cl)c2)s1 [CBK036841]	108
O=C(O)c1cccc(OCc2nnnn2-c2ccc(Br)cc2)c1 [CBK286744]	82.7
CC(C)Nc1nc(NC(C)C)nc(N(C)C(N)=O)n1 [CBK027732]	90.2
Cc1ccc(Nc2cncc(-c3ccc(O)cc3)n2)cc1Cl [CBK107802]	99.9
COc1cccc(C(=O)Nc2nc(-c3ccc(C(C)C)cc3)cs2)c1 [CBK101110]	87
CCN1CCN(Cc2c(O)ccc3c(=O)c(Oc4ccccc4Cl)c(C(F)(F)F)oc23)CC1 [CBK266627]	107
N/C(=N\OC(=O)COc1ccc2ccccc2c1)c1ccncc1 [CBK263737]	89.1
CCOC(=O)Cc1cc(O)nc(NC(=N)Nc2ccc(C)cc2C)n1 [CBK264986]	104
O=C(Nc1ccc2[nH]ccc2c1)c1ccccc1Nc1cccc(C(F)(F)F)c1 [CBK149583]	105
CN(CCOc1ccccc1)c1nccnc1N1CCNCC1 [CBK000035F]	109
Cc1cccc(-c2nc(C(N)=O)c3[nH]c(=O)n(-c4ccc(F)cc4)c3n2)c1 [CBK287632]	111
COc1ccc(C(=O)N2Cc3ccccc3C2)c(OC)n1 [CBK200317]	103
Cc1[nH]c2ccc(Cl)cc2c1CC(=O)N(C)CCN(C)C [CBK282700]	95.5

Structure (SMILES)	viability at 28.5 h, 10 µM [%]
OCCOc1cccnc1OCCN1CCCC1 [CBK039174]	85.3
O=C(c1cncnc1)N1Cc2ccccc2C1 [CBK200223]	106
Cc1cc(C)n(C2CCN(Cc3ccc4ccccc4n3)CC2)n1 [CBK281622]	87.9
O=S1(=O)CCC(SCc2ccccc2)C1 (stereo not shown) [CBK019237]	89.1
COc1cncc(-c2cnc(N)c(NC3CCOCC3)n2)c1 [CBK063846]	85.7
CSc1ccc(-n2ncc(-c3cccc(C(F)(F)F)c3)n2)cc1 [CBK112666]	93.6
O=C(NC(=S)Nc1ccc(-c2ccc(CO)o2)cc1)c1ccc2c(c1)OCCO2 [CBK269038]	82.9
CC(C)[C@@H](CO)Nc1cc(-c2cccc(Br)c2)nc2ccnn12 [CBK037117]	93.9
O=S(=O)(NCc1ccccc1)c1cccc2nonc12 [CBK265692]	90.4
Cn1cnc([N+](=O)[O-])c1Sc1cccs1 [CBK002620]	90.6
CCOC(=O)C1(C2CCCCC2)CCN(C(=O)Cc2ccc(Cl)c(Cl)c2)CC1 [CBK136922]	95.2
N#CCCCN1C(=O)C(O)(CC(=O)c2ccccn2)c2ccccc21 (stereo not shown) [CBK307373]	121
CN(C)CCN1CCN(c2nc(-c3cccnc3)cnc2N)CC1 [CBK063503]	93.6
COc1cc(CNc2ncc(-c3ccc(N4CCOCC4)cc3)n3ccnc23)cc(OC)c1OC [CBK091219]	100
C(=N\c1ccc2c(c1)OCCOCCOc1cc(/N=C/c3ccccc3)ccc1OCCOCCO2)/c1ccccc1 [CBK261388]	100
O=C(Nc1ccc(I)cc1C(=O)Nc1cccnc1)c1ccccc1Cl [CBK266154]	98.5
CN(C)c1cccc(C(=O)N2CC[C@@H](c3ccccc3)[C@H](O)C2)c1 [CBK283713]	91.6
O=C(O)c1cccc(NS(=O)(=O)c2cccc(S(=O)(=O)c3ccc(Cl)c(Cl)c3)c2)c1 [CBK261259]	102
Cc1ccc(SCCC(=O)NC(CC(=O)O)C(=O)O)cc1 (stereo not shown) [CBK295174]	103
COc1ccc(C(=O)N2CCC3(CCN(C(=O)c4cccc(C#N)c4)C3)C2)cc1OC (stereo not shown) [CBK131773]	98.3
COc1cc(/C=N/CC/N=C/c2ccc(O)c(OC)c2)ccc1O [CBK262015]	106
COc1ccccc1CN(CC1CCNCC1)C(=O)NC(c1ccccc1)c1ccccc1 [CBK049741]	115
Cc1[nH]c2ccccc2c1C(=O)CCC(=O)O [CBK260871]	95.5

Structure (SMILES)	viability at 28.5 h, 10 µM [%]
COc1ncc(-c2cncc(NCCO)n2)c(OC)n1 [CBK037939]	106
COc1ccc(NCc2cc(=O)oc3cc4c(cc23)CCC4)cn1 [CBK235362]	88
O=C(NCCC1SC(NC2CC3C=CC2C3)=NC1=O)c1ccccc1Cl (stereo not shown) [CBK200062]	113
COc1ccc(CCNC(=O)N2CCCC2C(=O)O)cc1 (stereo not shown) [CBK161386]	116
NC(=O)CN1CC2(CCN(C(=O)OCc3ccccc3)CC2)c2ccccc21 [CBK116309]	94.4
COc1ccc(-c2nc(C3CCN(C(=O)NC(C)(C)C)CC3)n3ccccc23)cc1 [CBK047080]	97.4
CCn1c(SCC(=O)N2CCC(C(N)=O)(N3CCCCC3)CC2)nnc1-c1ccccc1 [CBK266135]	95.2
COc1ccc(NC(=O)CSCc2cc(O)[nH]n2)cc1 [CBK268417]	99.3
CN(C)CCNc1nc(-c2cncnc2)cnc1N [CBK063661]	97.8
N=C1NS(=O)(=O)NC1c1ccc(Cl)cc1 (stereo not shown) [CBK263858]	88.4
O=C(Nc1ccccn1)c1nccnc1-c1ccc(COc2ccccc2)cc1 [CBK050835]	86.1
CC(=O)N1Cc2cc(C)ccc2OC2(CCN(CC3CC3)CC2)C1 [CBK285021]	95
C[C@H](c1ccccc1)n1c(=O)[nH]c2ncc(-c3cccc(/C=C/C(=O)O)c3)nc21 [CBK064983]	83.4
COc1cccc(CNn2cnnc2S)c1OCc1ccccc1 [CBK265781]	96.3
CCOc1ccc(-n2c(SCc3ccc(Br)cc3)nnc2-c2ccncc2)cc1 [CBK266017]	103
CN(C)CCCNC(=S)NCc1ccc(Cl)cc1 [CBK266910]	97.3
CC(=O)Nc1cc(NC(C)=O)c(O)c(C(=O)O)c1 [CBK009871]	88.6
c1csc(CNc2c(-c3cccs3)nc3cnccn23)c1 [CBK283685]	92.7
Cc1c(Cl)cccc1NC(=O)CSCc1cc(=O)[nH][nH]1 [CBK268199]	98.1
Nc1ncc(-c2cccc(OC(F)(F)F)c2)nc1N1CCN(CCO)CC1 [CBK063435]	94.9
Cc1nc(CN2CCCC3(CCN(C(=O)c4ccoc4)C3)C2)cs1 (stereo not shown) [CBK132838]	97.6
CN(C)c1cccc(-c2nc(-c3occc3C=O)cnc2N)c1 [CBK064001]	92.1
O=C(CC1CCCO1)NS(=O)(=O)c1cccc(-c2nnco2)c1 (stereo not shown) [CBK305267]	94.3

Structure (SMILES)	viability at 28.5 h, 10 µM [%]
NC(=O)c1c(NC(=O)/C=C/c2c(F)cccc2Cl)sc2c1CCCCCC2 [CBK262631]	98.2
CCOc1ccc2c(c1)-c1c(ssc1=S)C(C)(C)N2C(=O)CSc1nnc[nH]1 [CBK262680]	98.6
CCCCc1nccc(-c2ccc(OCC)c(C(=O)O)c2)n1 [CBK307429]	82.8
COCCn1c(-c2ccc(CN3CCCC3)cc2)cc2onc(C)c2c1=O [CBK050385C]	104
O=C(NCc1nnc2ccccn12)c1ccccc1 [CBK288064]	110
Cc1cnc2c(Cl)c(C(=O)N3CCC4(CCCNC4)C3)nn2c1 (stereo not shown) [CBK307472]	116
O=C(CC1c2ccccc2Oc2ccccc21)N1CCc2nc3ccccc3c(=O)n2CC1 [CBK286314]	92.4
Cn1cccc1CNCCc1ccc(S(N)(=O)=O)cc1 [CBK267831C]	98.7
Cc1c(-c2ccnc(N)n2)nnn1-c1ccc(Cl)cc1Cl [CBK018733]	65.5
Cc1ccc(C(=O)NCCNc2cnccn2)cc1S(C)(=O)=O [CBK246280]	103
CC(=O)Nc1cccc(-c2cc(N3CCN(CC(=O)N(C)c4ccccc4)CC3)ncn2)c1 [CBK091134]	99.7
COc1cccc(C2CC(=O)Nc3n[nH]cc32)c1OC (stereo not shown) [CBK287889]	88.1
CCOC(=O)C1N(C)C(=O)C(Cc2c(Cl)cccc2Cl)=C(C)N1C (stereo not shown) [CBK112643]	94.4
CC(C)(C)c1ccc(-c2cc3ncccc3nc2N)cc1 [CBK081199]	80.4
Cc1ccc(OCC(=O)NC(=S)Nc2cc(C(=O)O)ccc2C)cc1 [CBK265000]	96.8
O=S(=O)(O)CCCSCCCS(=O)(=O)O [CBK278307N]	95.4
COC(=O)Nc1ncc(CN2C(=O)c3ccccc3C2=O)s1 [CBK268434]	111
CCCCNc1nnc(-c2nn(C)cc2Cl)s1 [CBK288021]	79.4
CC(CN1CCCCC1)OC(=O)COc1ccc(F)cc1 (stereo not shown) [CBK058066C]	93.6
CN(c1ccc(C(O)(C(F)(F)F)C(F)(F)F)cc1)S(=O)(=O)c1cccs1 [CBK067061]	107
O=C(O)C(Cc1ccccc1)Nc1ncnc2sc3c(c12)CCC3 (stereo not shown) [CBK265266]	90.2
S=C(NCCN1CCCCC1)NCc1ccco1 [CBK268171]	107
